Data as given in ChEMBL document CHEMBL1142983, “Carbonic anhydrase inhibitors: inhibition of isozymes I, II, and IX with triazole-linked O-glycosides of benzene sulfonamides” (J Med Chem, 2007).

Columns and labels:
Carbonic anhydrase 2 = Carbonic anhydrase 2 (Homo sapiens, UniProt P00918)
Description: Inhibition of human recombinant isozyme CA2 by CO2 hydration method

Carbonic anhydrase 9 = Carbonic anhydrase 9 (Homo sapiens, UniProt Q16790)
Description: Inhibition of catalytic domain of human recombinant isozyme CA9 by CO2 hydration method

SMILES | Ki (Carbonic anhydrase 2) [nM] | Ki (Carbonic anhydrase 9) [nM]
CC(=O)OC[C@H]1O[C@H](O[C@H]2[C@H](OC(C)=O)[C@@H](OC(C)=O)[C@H](OCc3cn(-c4ccc(S(N)(=O)=O)cc4)nn3)O[C@@H]2COC(C)=O)[C@H](OC(C)=O)[C@@H](OC(C)=O)[C@@H]1OC(C)=O | 7.8 | –
NS(=O)(=O)c1ccc(-n2cc(CO[C@@H]3O[C@H](CO)[C@@H](O[C@H]4O[C@H](CO)[C@@H](O)[C@H](O)[C@H]4O)[C@H](O)[C@H]3O)nn2)cc1 | – | 84
NS(=O)(=O)c1ccc(-n2cc(CO[C@@H]3O[C@H](COCc4ccccc4)[C@@H](OCc4ccccc4)[C@H]3OCc3ccccc3)nn2)cc1 | 7.6 | –
CC(=O)OC[C@H]1O[C@@H](OCc2cn(-c3ccc(S(N)(=O)=O)cc3)nn2)[C@H](OC(C)=O)[C@@H](OC(C)=O)[C@H]1OC(C)=O | – | 9.7
[N-]=[N+]=Nc1ccc(S(N)(=O)=O)cc1 | – | 105
NS(=O)(=O)c1ccc(-n2cc(COC3OC[C@@H](O)[C@@H](O)[C@@H]3O)nn2)cc1 (some centres undefined) | 6.9 | 103
CC(=O)OC[C@H]1O[C@@H](OCc2cn(-c3ccc(S(N)(=O)=O)cc3)nn2)[C@H](OC(C)=O)[C@@H](OC(C)=O)[C@@H]1OC(C)=O | – | 107
NS(=O)(=O)c1ccc(-n2cc(CO[C@@H]3O[C@H](CO)[C@@H](O)[C@H](O)[C@H]3O)nn2)cc1 | – | 101
NS(=O)(=O)c1ccc(-n2cc(CO[C@@H]3O[C@H](CO)[C@H](O)[C@H](O)[C@H]3O)nn2)cc1 | 53 | 120
CC(=O)O[C@H]1[C@H](OC(C)=O)C(OCc2cn(-c3ccc(S(N)(=O)=O)cc3)nn2)OC[C@H]1OC(C)=O (some centres undefined) | 9.3 | 72
NS(=O)(=O)c1ccc(-n2cc(CO[C@@H]3O[C@H](CO)[C@@H](O)[C@H]3O)nn2)cc1 | – | 69
